Measurements published in patent US5496947A, “Quinolone carboxylic acid derivatives” (Dong Wha Pharmaceutical Industrial Co., Ltd., priority 1994, dated 1996).
Read-outs that look alike come from different tables or passages of the source.

Experiments:
[1] = tested on: Enterobacter aerogenes ATCC 13048; test: MIC, 2-fold dilution method in micro-well plate, E. aerogenes; format: cell-based; settings: Klebsiella aerogenes, ATCC13048, read-out: Minimum Inhibitory Concentration
Procedure: (§1) The in vitro antibiotic activity of the present compound is measured using 2-fold dilution method with a micro-well plate and the bacteria are inoculated in about 10^5 cfu/ml after an overnight culture in a brain-heart infusion (BHI) broth at 37° C. The novel compounds of the present invention are converted to a hydrochloride salt form and diluted with a sterilized distilled water to make 10 mg/ml aqueous solution. After the mother liquor wherein the compound is diluted to the two-fold concentration has been obtained in the form of an aqueous solution, the respective 0.1 ml of diluted liquor is transferred to a well and is inoculated with 0.1 ml of the culture fluid to make about (10^5 -10^6)/2 cfu/ml.
(§2) After cultivation at 37° C., the minimum inhibitory concentration (MIC) is measured and recorded in Table I-V.
(§3) Table I-V show the minimum inhibitory concentrations (MIC).
Enterobacter aerogenes ATCC 13048

[2] = tested on: Serratia marcescens ATCC 8100; test: MIC, 2-fold dilution method in micro-well plate, S. marcescens; format: cell-based
Procedure: as §1, §2, §3
Serratia marcescens ATCC 8100

[3] = tested on: Streptococcus pneumoniae ATCC 6303; test: MIC, 2-fold dilution method in micro-well plate, S. pneumoniae; format: cell-based; settings: S. pneuinoniae ATCC6303, 37° C., read-out: Minimum Inhibitory Concentration
Procedure: as §1, §2, §3
Streptococcus pneumoniae ATCC 6303

[4] = tested on: Streptococcus faecalis ATCC 29212; test: MIC, 2-fold dilution method in micro-well plate, S. faecalis ATCC 29212; format: cell-based; settings: Enterococcus faecalis; S. faecalis ATCC29212, 37° C.; read-out: Minimum Inhibitory Concentration
Procedure: as §1, §2, §3
Streptococcus faecalis ATCC 29212

[5] = Pharmacokinetic properties in ICR mouse, oral and subcutaneous, Bio-Assay (Agar well method); format: in vivo; settings: 40 mg/kg, average of four tests; for AUC / Cmax / Tmax / bioavailability / half-life: blood; for dose excreted: urine, read-out: Urine Recovery
Procedure: The pharmacokinetic properties are tested by orally administrating and subcutaneously injecting a test compound and a substance for control to a ICR Mouse with 22 g±10% weight, drawing blood after 10, 20, 30, 45, 60, 90, 120, 150, 180 and […] and analyzed by Bio-Assay (Agar well method).

[6] = tested on: Haemophilus influenza ATCC 35056; test: MIC, 2-fold dilution method in micro-well plate, H. influenzae; format: cell-based; settings: H. influenzae ATCC35056, 37° C.; read-out: Minimum Inhibitory Concentration
Procedure: as §1, §2, §3
Haemophilus influenza ATCC 35056

[7] = tested on: Pseudomonas aeruginosa ATCC 27853; test: MIC, 2-fold dilution method in micro-well plate, P. aeruginosa; format: cell-based
Procedure: as §1, §2, §3
Pseudomonas aeruginosa ATCC 27853

[8] = tested on: Streptococcus faecalis ATCC 19433; test: MIC, 2-fold dilution method in micro-well plate, S. faecalis ATCC 19433; format: cell-based; settings: Enterococcus faecalis; S. faecalis ATCC19433, 37° C.; read-out: Minimum Inhibitory Concentration
Procedure: as §1, §2, §3
Streptococcus faecalis ATCC 19433

[9] = tested on: Acinetobacter calcoaceticus; test: MIC, 2-fold dilution method in micro-well plate, A. calcoaceticus; format: cell-based; settings: A. calcoaceticus ATCC8090 (as in tables), 37° C., read-out: Minimum Inhibitory Concentration
Procedure: as §1, §2
Table I-V show the minimum inhibitory concentrations (MIC). […]

[10] = tested on: Proteus vulgaris ATCC 13315; test: MIC, 2-fold dilution method in micro-well plate, P. vulgaris; format: cell-based
Procedure: as §1, §2, §3
Proteus vulgaris ATCC 13315

[11] = tested on: Klebsiella pneumoniae ATCC 13883; test: MIC, 2-fold dilution method in micro-well plate, K. pneumoniae; format: cell-based
Procedure: as §1, §2, §3
Klebsiella pneumoniae ATCC 13883

[12] = tested on: Escherichia coli ATCC 25922; test: MIC, 2-fold dilution method in micro-well plate, E. coli; format: cell-based
Procedure: as §1, §2, §3
Escherichia coli ATCC 25922

[13] = tested on: Shigella flexneri ATCC 12022; test: MIC, 2-fold dilution method in micro-well plate, S. flexneri; format: cell-based; settings: S. flexneri ATCC12022, 37° C., read-out: Minimum Inhibitory Concentration
Procedure: as §1, §2, §3
Shigella flexneri ATCC 12022

[14] = tested on: Enterobacter cloacae; test: MIC, 2-fold dilution method in micro-well plate, E. cloacae; format: cell-based; settings: read-out: Minimum Inhibitory Concentration
Procedure: as §1, §2, §3
Enterobacter cloacae ATCC 23355

[15] = tested on: Shigella sonnei ATCC 25931; test: MIC, 2-fold dilution method in micro-well plate, S. sonnei; format: cell-based; settings: S. sonnei ATCC25931, 37° C., read-out: Minimum Inhibitory Concentration
Procedure: as §1, §2, §3
Shigella sonnei ATCC 25931

[16] = tested on: Streptococcus pyrogens ATCC 19615; test: MIC, 2-fold dilution method in micro-well plate, S. pyrogens; format: cell-based; settings: S. pyrogenes ATCC19615, 37° C., read-out: Minimum Inhibitory Concentration
Procedure: as §1, §2, §3
Streptococcus pyrogens ATCC 19615

[17] = tested on: Citrobacter freundii ATCC 8090; test: MIC, 2-fold dilution method in micro-well plate, C. freundii; format: cell-based
Procedure: as §1, §2, §3
Citrobacter freundii ATCC 8090

[18] = tested on: Salmonella typhimurium ATCC 14028; test: MIC, 2-fold dilution method in micro-well plate, S. typhimurium; format: cell-based; settings: Salmonella enterica, read-out: Minimum Inhibitory Concentration
Procedure: as §1, §2, §3
Salmonella typhimurium ATCC 14028

[19] = S. marcescens ATCC8100, 37° C., read-out: Minimum Inhibitory Concentration
[20] = P. aerugirnosa ATCC27853, 37° C., read-out: Minimum Inhibitory Concentration
[21] = P. vulgaris ATCC13315, 37° C., read-out: Minimum Inhibitory Concentration
[22] = ATCC13883, read-out: Minimum Inhibitory Concentration
[23] = E. coli ATCC25922, 37° C., read-out: Minimum Inhibitory Concentration
[24] = C. freundii ATCC8090, 37° C., read-out: Minimum Inhibitory Concentration
[25] = ATCC8100, read-out: Minimum Inhibitory Concentration
[26] = ATCC13315, read-out: Minimum Inhibitory Concentration
[27] = ATCC25922, read-out: Minimum Inhibitory Concentration

Row | Structure (SMILES) | MIC [1] [µg/mL] | MIC [2, 19] [µg/mL] | MIC [3] [µg/mL] | MIC [4] [µg/mL] | AUC ([5]; po, P.O) [ng·h/mL] | Cmax ([5]; po, P.O) [ng/mL] | Tmax ([5]; po, P.O) [h] | bioavailability ([5]; po, P.O) [%] | half-life ([5]; po, P.O) [h] | MIC [6] [µg/mL] | MIC [7, 20] [µg/mL] | MIC [8] [µg/mL] | MIC [9] [µg/mL] | MIC [11, 22] [µg/mL] | MIC [13] [µg/mL] | MIC [15] [µg/mL] | MIC [16] [µg/mL] | MIC [17, 24] [µg/mL] | MIC [18] [µg/mL] | MIC [14] [µg/mL] | also measured
1 | CC1CN(c2nc3c(cc2F)c(=O)c(C(=O)O)cn3-c2ccc(F)cn2)CCN1.Cl (stereo not drawn) [Example 14, 1-(5-fluoro-2-pyridyl)-6-fluoro-7-(3-methyl-1-piperazinyl)-1,4-dihydro-4-oxo-1,8-naphthyridine-3-carboxylic acid hydrochloride] | 1.25 | 0.313 | 5 | 2.5 | 12500 | 2120 | 0.87 | 44 | 3.81 | 1.25 | 1.25 | 5 | 0.625 | 1.25 | 0.156 | 0.078 | 10 | 0.625 | 1.25 |  | AUC ([5]; sc, S.C): 28100 ng·h/mL; Cmax ([5]; sc, S.C): 4280 ng/mL; Tmax ([5]; sc, S.C): 0.6 h; half-life ([5]; sc, S.C): 7.28 h; dose excreted ([5]; po, P.O): 58.9%; dose excreted ([5]; sc, S.C): 21.1%; MIC [10, 21]: 0.625 µg/mL; MIC [12, 23]: 0.313 µg/mL; MIC ([14]; E. cloacae ATCC23355 (as in tables), 37° C.): 0.625 µg/mL
2 | CC1CN(c2cc3c(cc2F)c(=O)c(C(=O)O)cn3-c2ccc(F)cn2)CCN1.Cl (stereo not drawn) [Example 19, 1-(5-fluoro-2-pyridyl)-6-fluoro-7-(3-methyl-1-piperazinyl)-1,4-dihydro-4-oxoquinoline-3-carboxylic acid hydrochloride] | 0.625 |  | 5 | 5 | 16900 | 3110 | 0.87 | 72.7 | 8.42 | 0.625 | 0.625 | 5 | 1.25 |  | 0.313 | 0.313 | 10 | 1.25 | 0.313 | 0.625 | MIC [2, 25]: 0.625 µg/mL; AUC ([5]; sc, S.C): 23300 ng·h/mL; Cmax ([5]; sc, S.C): 5110 ng/mL; Tmax ([5]; sc, S.C): 0.87 h; half-life ([5]; sc, S.C): 5.32 h; dose excreted ([5]; po, P.O): 29%; dose excreted ([5]; sc, S.C): 48.7%; MIC [10, 21]: 0.156 µg/mL; MIC ([11]; K. pneumoniae ATCC13883, 37° C., read-out: Minimum Inhibitory Concentration): 1.25 µg/mL; MIC [12, 23]: 0.078 µg/mL
3 | CN1CCN(c2nc3c(cc2F)c(=O)c(C(=O)O)cn3-c2ccncc2F)CC1.Cl [Example 8, 1-(3-fluoro-4-pyridyl)-6-fluoro-7-(4-methyl-1-piperazinyl)-1,4-dihydro-4-oxo-1,8-naphthyridine-3-carboxylic acid hydrochloride] | 0.625 |  | 5 | 5 |  |  |  |  |  | 0.625 |  | 5 | 1.25 | 0.625 | 0.313 | 0.625 | 10 | 1.25 | 0.313 | 0.625 | MIC [2, 25]: 0.625 µg/mL; MIC ([7]; ATCC27853, read-out: Minimum Inhibitory Concentration): 0.625 µg/mL; MIC [10, 26]: 0.313 µg/mL; MIC [12, 27]: 0.313 µg/mL
4 | CC1CN(c2c(F)cc3c(=O)c(C(=O)O)cn(-c4ccc(F)cn4)c3c2F)CCN1.Cl (stereo not drawn) [Example 25, 1-(5-fluoro-2-pyridyl)-6,8-difluoro-7-(3-methyl-1-piperazinyl)-1,4-dihydro-4-oxoquinoline-3-carboxylic acid hydrochloride] | 0.625 | 1.25 | 5 | 5 |  |  |  |  |  | 0.625 | 0.313 | 5 | 1.25 | 0.625 | 0.156 | 0.156 | 10 |  | 0.625 | 0.625 | MIC [10, 26]: 0.625 µg/mL; MIC [12, 27]: 0.625 µg/mL; MIC ([17]; ATCC8090, read-out: Minimum Inhibitory Concentration): 0.625 µg/mL
